# Measurements reported in paper PMC6481345, “A novel anti-melanoma SRC-family kinase inhibitor” (Oncotarget, 2019).
# Tests used:
# ABL1 = molecular target: T1, ABL1 (Homo sapiens, UniProt P00519); assay: Radioisotope filter activity assay, recombinant kinase; type: biochemical; details: 10 point dose response, 10 µM ATP
# T1 construct: purchased Reaction Biology Corporation
# Method: (§1) The effect of SAB298 on a panel of 36 recombinant kinases, was screed with the radioisotope filter binding assay employing 10 concentrations of the compound with 10 µM ATP (Reaction Biology Corporation, Malvern, PA). In addition, we tested the endogenous kinome response to SAB298 (0.05 µM, 0.5 µM and 5 µM) in lysates from two melanoma cell lines (YUSIV and YUSIK) employing the KiNativ® platform (ActivX Biosciences Inc., La Jolla, CA). KiNativ® is a robust, high performance mass spectrometry (LC-MS^2) assay that uses biotinylated probes to measure relevant changes in the affinity to the ATP-binding sites of 205 native kinases as a function of cellular context. We also validated SAB298 effect on the activity of SRC-family kinases by probing for phosphorylated Y416, the marker of activated SFKs, with anti-IEDNEpYTAR antibodies (also known as Y419, #2101, Cell Signaling Technology, Beverly, MA). In some cases the cells were incubated overnight with 20 µM proteasome inhibitor MG-132 (CAS 133407-82-6, Millipore Sigma, Burlington, MA) to rescue degradation.
# (§2) Supplemntary Table 3: Radioisotope filter activity assay Tests for SAB298 target protein
# (§3) *These are results from 10 point dose response test employed with 10 µM ATP. […]
# (§4) SRC TRCN0000195339 3ʹUTR […]
# (§5) YES TRCN0000001611 CDS […]
# (§6) FYN TRCN0000003099 CDS […]
# (§7) LY N TRCN0000230901 CDS […]
# ARAF = molecular target: T2, ARAF (Homo sapiens, UniProt P10398); assay: as above; type: biochemical; details: 10 point dose response, 10 µM ATP
# T2 construct: purchased Reaction Biology Corporation
# Method: as §1, §2, §3, §4, §5, §6, §7
# BLK = molecular target: T3, BLK (Homo sapiens, UniProt P51451); assay: as above; type: biochemical; details: 10 point dose response, 10 µM ATP
# T3 construct: purchased Reaction Biology Corporation
# Method: as §1, §2, §3, §4, §5, §6, §7
# BRAF = molecular target: T4, BRAF (Homo sapiens, UniProt P15056); assay: as above; type: biochemical; details: 10 point dose response, 10 µM ATP
# T4 construct: purchased Reaction Biology Corporation
# Method: as §1, §2, §3, §4, §5, §6, §7
# BRK = molecular target: T5, BRK (Homo sapiens, UniProt Q13882); assay: as above; type: biochemical; details: 10 point dose response, 10 µM ATP
# T5 construct: purchased Reaction Biology Corporation
# Method: as §1, §2, §3, §4, §5, §6, §7
# BTK = molecular target: T6, BTK (Homo sapiens, UniProt Q06187); assay: as above; type: biochemical; details: 10 point dose response, 10 µM ATP
# T6 construct: purchased Reaction Biology Corporation
# Method: as §1, §2, §3, §4, §5, §6, §7
# CDK4/Cyclin D1 = molecular target: T7, CDK4/Cyclin D1 (Homo sapiens, UniProt P11802); assay: as above; type: biochemical; details: 10 point dose response, 10 µM ATP
# T7 construct: purchased Reaction Biology Corporation
# Method: as §1, §2, §3, §4, §5, §6, §7
# FGR = molecular target: T8, FGR (Homo sapiens, UniProt P09769); assay: as above; type: biochemical; details: 10 point dose response, 10 µM ATP
# T8 construct: purchased Reaction Biology Corporation
# Method: as §1, §2, §3, §4, §5, §6, §7
# FLT3 = molecular target: T9, FLT3 (Homo sapiens, UniProt P36888); assay: as above; type: biochemical; details: 10 point dose response, 10 µM ATP
# T9 construct: purchased Reaction Biology Corporation
# Method: as §1, §2, §3, §4, §5, §6, §7
# FYN = molecular target: T10, FYN (Homo sapiens, UniProt P06241); assay: as above; type: biochemical; details: 10 point dose response, 10 µM ATP
# T10 construct: purchased Reaction Biology Corporation
# Method: as §1, §2, §3, §4, §5, §6, §7
# HCK = molecular target: T11, HCK (Homo sapiens, UniProt P08631); assay: as above; type: biochemical; details: 10 point dose response, 10 µM ATP
# T11 construct: purchased Reaction Biology Corporation
# Method: as §1, §2, §3, §4, §5, §6, §7
# IGF1R = molecular target: T12, IGF1R (Homo sapiens, UniProt P08069); assay: as above; type: biochemical; details: 10 point dose response, 10 µM ATP
# T12 construct: purchased Reaction Biology Corporation
# Method: as §1, §2, §3, §4, §5, §6, §7
# RAF1 = molecular target: T13, RAF1 (Homo sapiens, UniProt P04049); assay: as above; type: biochemical; details: 10 point dose response, 10 µM ATP
# T13 construct: purchased Reaction Biology Corporation
# Method: as §1, §2, §3, §4, §5, §6, §7
# WEE1 = molecular target: T14, WEE1 (Homo sapiens, UniProt P30291); assay: as above; type: biochemical; details: 10 point dose response, 10 µM ATP
# T14 construct: purchased Reaction Biology Corporation
# Method: as §1, §2, §3, §4, §5, §6, §7
# [1] = molecular target: native kinases in YUSIV and YUSIK lysates; assay: KiNativ in situ kinase profiling (summary over kinases); type: binding, human; details: mTOR, EGFR, LCK and MEK1; read-out: IC50, range over kinases
# Method: as §1
# melanoma cells = assay: Apoptosis (annexin V staining and caspase activity); type: cell-based, human; details: 0.5 µM and 1 µM, 24 hrs
# Method: The rate of apoptosis was measured using the Dead Cell Apoptosis Kit with Alexa Fluor® 488 annexin V and propidium iodide (Invitrogen, V13241). Phosphatidylserine was visualized by flow cytometry following the manufacturer’s instructions. The assay was done in response to SAB298 (0.5 µM and 1 µM, 24 hrs), compared to DMSO (negative control) or camptothecin (10 µM), as a positive control. In addition, we used the 96-well colorimetric Caspase 3 Assay kit (Millipore Sigma) to measure caspase activity in response to increasing concentrations of SAB298, and western blotting for apoptotic markers, such as cleaved PARP. […]
# www.oncotarget.com Oncotarget, Supplementary Materials
# A novel anti-melanoma src-family kinase inhibitor
# Supplementary Figure 1: Apoptosis in response to SAB298. […]
# melanoma cells treated for 24 hrs with SAB298 (0.5 and 1 µM). (C) A bar plot showing the differential levels of annexin positive cells in response to SAB298. (D) Caspase activity in response to SAB298 of four different cell lines (YUSIV, YUSIK, YUGASP and YUSEEP).
# (1 picture or pasted object on this page, not shown here)
# LYN = LYN (Homo sapiens, UniProt P07948); assay: KiNativ in situ kinase profiling in melanoma cell lysates; type: binding; parameters: the endogenous kinome response to SAB298 (0.05 µM, 0.5 µM and 5 µM) in lysates from two melanoma cell lines; host or cells: YUSIV and YUSIK melanoma cell lysates; details: 3-point dose response
# Method: as §1
# SRC = SRC (Homo sapiens, UniProt P12931); assay: as above; type: binding; parameters: the endogenous kinome response to SAB298 (0.05 µM, 0.5 µM and 5 µM) in lysates from two melanoma cell lines; host or cells: YUSIV and YUSIK melanoma cell lysates
# Method: as §1
# Sequence of LYN (P07948 whole entry): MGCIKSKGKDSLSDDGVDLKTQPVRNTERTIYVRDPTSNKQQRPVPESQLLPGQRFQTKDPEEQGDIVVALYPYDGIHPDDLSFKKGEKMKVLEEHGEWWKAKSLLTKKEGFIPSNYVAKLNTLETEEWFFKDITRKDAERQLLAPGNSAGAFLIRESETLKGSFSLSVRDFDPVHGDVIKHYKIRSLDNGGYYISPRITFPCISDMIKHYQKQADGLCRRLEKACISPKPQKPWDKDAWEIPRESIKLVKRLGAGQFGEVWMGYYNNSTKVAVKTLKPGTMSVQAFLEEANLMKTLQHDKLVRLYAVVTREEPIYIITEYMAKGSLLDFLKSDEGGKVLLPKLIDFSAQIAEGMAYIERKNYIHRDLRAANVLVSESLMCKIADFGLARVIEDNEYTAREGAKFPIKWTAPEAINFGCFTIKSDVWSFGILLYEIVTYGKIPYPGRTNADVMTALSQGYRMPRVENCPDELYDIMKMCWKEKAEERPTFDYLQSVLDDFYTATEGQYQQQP
# Sequence of SRC (P12931 whole entry): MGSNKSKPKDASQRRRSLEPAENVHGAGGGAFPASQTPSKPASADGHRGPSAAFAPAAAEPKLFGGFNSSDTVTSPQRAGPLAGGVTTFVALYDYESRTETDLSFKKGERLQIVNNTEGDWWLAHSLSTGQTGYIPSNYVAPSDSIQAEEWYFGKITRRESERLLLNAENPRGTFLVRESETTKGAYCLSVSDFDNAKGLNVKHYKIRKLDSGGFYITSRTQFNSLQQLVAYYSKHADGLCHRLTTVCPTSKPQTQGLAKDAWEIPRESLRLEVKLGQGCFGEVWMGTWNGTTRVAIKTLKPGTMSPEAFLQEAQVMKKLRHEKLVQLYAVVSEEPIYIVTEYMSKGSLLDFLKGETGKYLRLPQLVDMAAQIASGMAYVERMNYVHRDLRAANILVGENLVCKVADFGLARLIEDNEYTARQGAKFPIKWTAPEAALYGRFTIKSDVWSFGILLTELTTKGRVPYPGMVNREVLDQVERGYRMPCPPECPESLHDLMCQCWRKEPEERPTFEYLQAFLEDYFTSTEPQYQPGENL
# T8 sequence (P09769 whole entry): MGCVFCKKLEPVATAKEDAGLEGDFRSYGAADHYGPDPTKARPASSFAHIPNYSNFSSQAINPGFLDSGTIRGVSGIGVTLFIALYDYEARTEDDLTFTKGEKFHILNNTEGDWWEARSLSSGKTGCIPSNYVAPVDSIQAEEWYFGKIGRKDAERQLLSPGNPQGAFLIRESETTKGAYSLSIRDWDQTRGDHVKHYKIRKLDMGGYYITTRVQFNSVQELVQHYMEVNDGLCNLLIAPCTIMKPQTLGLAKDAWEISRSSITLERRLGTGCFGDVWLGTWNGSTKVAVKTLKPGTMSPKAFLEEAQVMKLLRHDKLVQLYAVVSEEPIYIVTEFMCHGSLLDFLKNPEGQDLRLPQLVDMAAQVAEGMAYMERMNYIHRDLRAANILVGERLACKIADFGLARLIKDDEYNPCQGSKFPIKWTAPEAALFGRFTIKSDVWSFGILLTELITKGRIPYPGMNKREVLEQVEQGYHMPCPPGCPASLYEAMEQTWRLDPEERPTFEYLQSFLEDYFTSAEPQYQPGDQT
# T12 sequence (P08069 31-1367): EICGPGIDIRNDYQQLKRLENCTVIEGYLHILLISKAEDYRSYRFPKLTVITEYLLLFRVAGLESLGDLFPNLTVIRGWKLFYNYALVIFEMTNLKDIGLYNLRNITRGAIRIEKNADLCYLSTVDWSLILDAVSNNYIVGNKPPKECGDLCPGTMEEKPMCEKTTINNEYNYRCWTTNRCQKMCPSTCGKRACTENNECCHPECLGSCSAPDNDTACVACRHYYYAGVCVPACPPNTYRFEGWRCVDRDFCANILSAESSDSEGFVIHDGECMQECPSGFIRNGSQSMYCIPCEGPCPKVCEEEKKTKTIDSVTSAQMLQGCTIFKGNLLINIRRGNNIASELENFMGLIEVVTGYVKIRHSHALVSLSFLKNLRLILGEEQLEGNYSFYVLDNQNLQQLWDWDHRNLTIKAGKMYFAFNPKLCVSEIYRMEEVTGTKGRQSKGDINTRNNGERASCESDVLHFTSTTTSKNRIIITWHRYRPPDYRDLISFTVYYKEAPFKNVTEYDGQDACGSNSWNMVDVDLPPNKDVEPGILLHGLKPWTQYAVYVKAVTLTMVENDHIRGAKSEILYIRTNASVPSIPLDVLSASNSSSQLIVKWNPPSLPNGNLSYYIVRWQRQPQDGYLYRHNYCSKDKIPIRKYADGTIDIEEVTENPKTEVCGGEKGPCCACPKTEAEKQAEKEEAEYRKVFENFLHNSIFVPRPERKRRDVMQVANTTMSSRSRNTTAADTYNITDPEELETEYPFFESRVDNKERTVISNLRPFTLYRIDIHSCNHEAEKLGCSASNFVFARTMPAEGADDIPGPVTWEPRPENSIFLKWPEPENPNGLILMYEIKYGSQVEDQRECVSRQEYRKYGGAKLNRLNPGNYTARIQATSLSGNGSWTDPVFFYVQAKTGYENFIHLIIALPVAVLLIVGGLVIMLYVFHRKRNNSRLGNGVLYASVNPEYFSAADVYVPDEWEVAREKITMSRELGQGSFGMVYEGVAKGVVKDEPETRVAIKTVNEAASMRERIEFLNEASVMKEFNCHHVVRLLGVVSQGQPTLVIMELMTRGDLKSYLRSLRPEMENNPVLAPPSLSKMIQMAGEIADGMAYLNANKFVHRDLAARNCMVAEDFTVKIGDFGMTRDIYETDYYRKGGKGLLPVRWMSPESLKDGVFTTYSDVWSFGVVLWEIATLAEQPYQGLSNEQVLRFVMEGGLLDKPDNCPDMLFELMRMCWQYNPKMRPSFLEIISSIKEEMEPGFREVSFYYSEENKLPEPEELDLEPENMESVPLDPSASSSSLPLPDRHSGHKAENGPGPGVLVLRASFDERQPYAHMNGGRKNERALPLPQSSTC
# T7 sequence (P11802 whole entry): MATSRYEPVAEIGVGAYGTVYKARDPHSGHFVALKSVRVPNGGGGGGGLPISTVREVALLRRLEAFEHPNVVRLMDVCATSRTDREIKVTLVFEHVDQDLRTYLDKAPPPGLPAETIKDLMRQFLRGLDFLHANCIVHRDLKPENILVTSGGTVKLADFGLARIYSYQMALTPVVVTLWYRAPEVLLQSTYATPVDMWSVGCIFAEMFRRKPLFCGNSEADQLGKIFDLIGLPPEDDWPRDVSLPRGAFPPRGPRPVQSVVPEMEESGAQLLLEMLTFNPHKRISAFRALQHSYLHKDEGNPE
# T7 sequence (P24385 whole entry partner): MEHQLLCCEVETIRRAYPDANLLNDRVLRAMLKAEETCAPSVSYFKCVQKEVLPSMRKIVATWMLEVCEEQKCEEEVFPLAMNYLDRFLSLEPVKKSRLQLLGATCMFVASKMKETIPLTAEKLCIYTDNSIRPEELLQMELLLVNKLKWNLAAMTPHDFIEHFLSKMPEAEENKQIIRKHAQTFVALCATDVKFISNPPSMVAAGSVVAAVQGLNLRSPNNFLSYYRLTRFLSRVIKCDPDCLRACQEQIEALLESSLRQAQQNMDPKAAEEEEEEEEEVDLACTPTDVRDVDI
# T9 sequence (P36888 27-993): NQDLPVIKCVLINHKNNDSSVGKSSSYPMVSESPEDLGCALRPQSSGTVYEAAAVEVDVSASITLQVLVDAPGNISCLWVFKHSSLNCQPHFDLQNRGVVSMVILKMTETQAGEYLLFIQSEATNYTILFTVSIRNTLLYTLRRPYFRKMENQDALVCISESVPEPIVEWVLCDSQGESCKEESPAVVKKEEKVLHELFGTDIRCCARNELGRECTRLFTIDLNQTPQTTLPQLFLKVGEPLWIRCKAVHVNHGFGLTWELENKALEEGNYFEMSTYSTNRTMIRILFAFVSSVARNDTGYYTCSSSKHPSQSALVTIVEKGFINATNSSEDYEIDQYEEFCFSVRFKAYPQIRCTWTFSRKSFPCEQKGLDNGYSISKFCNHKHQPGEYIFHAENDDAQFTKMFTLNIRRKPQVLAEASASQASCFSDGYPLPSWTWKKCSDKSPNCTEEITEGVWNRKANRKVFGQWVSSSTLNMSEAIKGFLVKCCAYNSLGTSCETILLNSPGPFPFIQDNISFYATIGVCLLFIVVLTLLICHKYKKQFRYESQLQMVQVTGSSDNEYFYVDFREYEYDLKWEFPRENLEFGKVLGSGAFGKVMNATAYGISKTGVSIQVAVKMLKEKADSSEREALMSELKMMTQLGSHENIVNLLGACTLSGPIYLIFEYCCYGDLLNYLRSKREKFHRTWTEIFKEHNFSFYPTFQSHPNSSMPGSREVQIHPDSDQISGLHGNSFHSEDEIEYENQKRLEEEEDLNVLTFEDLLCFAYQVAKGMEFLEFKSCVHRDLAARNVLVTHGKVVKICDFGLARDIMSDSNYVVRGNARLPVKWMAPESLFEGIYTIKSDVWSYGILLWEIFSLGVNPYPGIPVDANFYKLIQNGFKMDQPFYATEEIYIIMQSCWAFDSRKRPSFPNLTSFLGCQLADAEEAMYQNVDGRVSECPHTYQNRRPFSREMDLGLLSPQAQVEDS
# T10 sequence (P06241 whole entry): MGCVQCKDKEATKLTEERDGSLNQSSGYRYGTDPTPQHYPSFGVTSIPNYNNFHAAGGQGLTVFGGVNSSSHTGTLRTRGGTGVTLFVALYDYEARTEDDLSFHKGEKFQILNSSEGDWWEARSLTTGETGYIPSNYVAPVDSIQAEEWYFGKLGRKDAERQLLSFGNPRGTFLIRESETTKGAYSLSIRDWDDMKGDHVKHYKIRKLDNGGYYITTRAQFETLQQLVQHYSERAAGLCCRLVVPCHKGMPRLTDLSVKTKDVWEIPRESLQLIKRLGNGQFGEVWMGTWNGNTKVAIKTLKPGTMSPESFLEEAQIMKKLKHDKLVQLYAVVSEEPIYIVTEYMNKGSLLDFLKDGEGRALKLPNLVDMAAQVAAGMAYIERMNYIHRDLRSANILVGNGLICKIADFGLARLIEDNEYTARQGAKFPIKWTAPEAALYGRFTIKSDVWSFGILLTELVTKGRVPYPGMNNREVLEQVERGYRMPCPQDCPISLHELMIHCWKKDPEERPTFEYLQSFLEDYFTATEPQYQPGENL
structure (smiles),measurement,setting,value
"Nc1ncnc2c1c(-c1ccc(Oc3ccccc3)cc1)nn2C[C@@H]1SSC[C@@H]1O [SAB298, (3S, 4S)-3-((4-amino-3-(4-phenoxyphenyl)-1H-pyrazolo[3,4-d]pyrimidin-1-yl)methyl)-1,2-dithiolan-4-ol]",IC50,ABL1,4.14 µM
same,IC50,ARAF,1200 nM
same,IC50,BLK,6.5 nM
same,IC50,BRAF,> 10 µM
same,IC50,BRK,35.5 nM
same,IC50,BTK,78 nM
same,IC50,CDK4/Cyclin D1,> 10 µM
same,IC50,FGR,7.8 nM
same,IC50,FLT3,71 nM
same,IC50,FYN,21.7 nM
same,IC50,HCK,16.3 nM
same,IC50,IGF1R,> 10 µM
same,IC50,RAF1,2800 nM
same,IC50,WEE1,> 10 µM
same,IC50,[1],1300 to 2900 nM
same,Apoptosis (annexin staining and caspase activity),melanoma cells,induced apoptosis
same,IC50,LYN; LYN in YUSIK lysate,190 nM
same,IC50,LYN; LYN in YUSIV lysate,60 nM
same,higher binding affinity in KiNativ assay compared to radioisotope filtration binding assay,SRC; SRC,~10 fold
same,IC50,"SRC; SRC in YUSIV lysate, 3-point dose response",31 nM
